In patent publication US6699676B1, “Uses of ouabain and ouabain-like molecules in apoptosis related pathologies” (Corporation du Centre de Recherche du Centre, Hospitalier …, priority 1999, dated 2004):

Key:
VSMC = details: moderate elevation of [Ca2+]i, reference (37); cited from earlier work
caspase-3 = format: biochemical, rat; details: lysates of VSMC-E1A after 6 hours serum withdrawal, 100 mM added, data not shown
Experimental: (§1) To examine this hypothesis, we measured the activity of caspases in lysates of VSMC-E1A subjected to 6 hours serum withdrawal has been measured.
(§2) Caspase activity. VSMC-E1A seeded in 20 cm^2 flasks and treated as indicated in FIG. 5 were scratched, transferred to centrifuge tubes, washed twice with PBS and lysed in 0.5 ml of buffer A contaming 50 mM tris-HCl (pH 7.4), 5 mM MgCl2, 1 mM EGTA and 0.1% CHAPS. Then, 50-100 μl of cell lysate was mixed with 600 μl of buffer A containing 1 mM dithiothreitol, 40 μM YVAD-AMC or DEVD-AMC with or without 1 μM of caspase-1 and capspase-3 inhibitors (Ac-YVAD-CHO and Ac-DEVD-CHO, respectively), incubated for 2 hours at 37° C. and diluted 15-fold with 80 mM glycine-NaOH buffer (pH 10). Fluorescence of the samples was measured at ex=365 run and em=465 run and calibrated with AMC in the range of 10 to 100 nM. To measure caspase activity in control and ouabain-treated Jurkat cells, 5 ml of suspension containing ˜2×10^7 cells was transferred onto ice and sedimented. The pellet of cells was washed and treated with 0.3 ml of medium A in the same way as VSMC. Protein content was estimated by Bradford methods.

caspase-1 = target: T1, caspase-1 (Rattus norvegicus, UniProt P43527); format: biochemical; details: lysates of VSMC-E1A after 6 hours serum withdrawal, 100 mM added, data not shown
T1 construct: we measured the activity of caspases in lysates of VSMC-E1A subjected to 6 hours serum withdrawal; endogenous in cells; host or cells: VSMC-E1A (rat aortic vascular smooth muscle cells transfected with E1A adenoviral protein), cell lysate
T1 sequence (P43527 119-402): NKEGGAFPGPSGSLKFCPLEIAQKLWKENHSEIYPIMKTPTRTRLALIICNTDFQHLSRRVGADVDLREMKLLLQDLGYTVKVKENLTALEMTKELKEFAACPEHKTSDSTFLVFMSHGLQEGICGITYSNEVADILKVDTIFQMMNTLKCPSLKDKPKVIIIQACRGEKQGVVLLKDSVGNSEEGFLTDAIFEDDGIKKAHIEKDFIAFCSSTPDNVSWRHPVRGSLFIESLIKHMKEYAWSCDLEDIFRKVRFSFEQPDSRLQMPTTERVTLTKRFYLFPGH
Experimental: as §1, §2

Compound | effect on VSMC apoptosis (VSMC) | decrease of caspase-3 activity (caspase-3) | decrease of caspase-1 activity (caspase-1)
C[C@H](CCC(=O)O)C[C@H](C)C[C@H](C)C(=O)/C=C(\O)[C@H](C)C[C@H](C)C/C=C/[C@@H](C)[C@@H](O)[C@@H](C)[C@@H](O)C[C@@H]1CC[C@@](C)([C@H]2CC[C@@](C)([C@@H](C)O)O2)O1 [ionomycin] | did not observe any effect |  | 
C[N+](C)(C)CCO.[Cl-] [choline chloride] |  | the same level of inhibition | the same level of inhibition
C/C=C(/C)C(=O)O[C@H]1C(C)=C2[C@H]([C@@H]1OC(=O)CCCCCCC)[C@@](C)(OC(C)=O)C[C@H](OC(=O)CCC)[C@@]1(O)[C@H]2OC(=O)[C@@]1(C)O [thapsigargin] | did not observe any effect |  | 
